This passage reports IC50 results from patent US11814367B2, “Inhibitors of glycogen synthase 1 (GYS1) and methods of use thereof” (Maze Therapeutics, Inc., priority 2021, dated 2023).

Where only a bound is given, the exact number is not on record here.

Experiment [1] deals with hGYS1 enzyme (recombinant hGYS1/GN1 protein) (Homo sapiens (Human), UniProt P13807). In words: GYS1 coupled enzyme assay (PK/LDH). It counts as biochemical. Conditions: hGYS1/GN1 50 nM, UDP-Glucose 0.8 mM, G6P 1 mM; geometric mean of at least 2 runs.
Experiment [2] has as its system hGYS1 enzyme / glycogen synthesis in HeLa cells. The experiment is described as follows: GYS1 cell based assay (glycogen synthesis, Glucose-glo). The arrangement: species or system human. Conditions: Homo sapiens, HeLa, 24 h, 24 h incubation, 20 mM glucose, geometric mean of at least 2 runs. In a few lines:
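HeLa cells starved 24 h in medium containing only 1× Glutamax were plated onto compound in medium with 20 mM glucose (1% DMSO final) for 24 h, 37 °C, 5% CO2. Acid lysates were Tris-quenched, glucoamylase-digested (pH 5.3, 1 h, 37 °C) and read by Glucose-glo luminescence. IC50 came from Hill fits, as geometric mean of ≥2 runs.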

Experiment [3] addresses hGYS2 enzyme (recombinant hGYS2/GN1 protein) (Homo sapiens (Human), UniProt P54840). In words: GYS2 coupled enzyme assay (PK/LDH). It counts as biochemical. Conditions: geometric mean of at least 2 assay runs on separate days, read-out: Avg_IC50. In a few lines: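 Recombinant hGYS2/GN1 (200 nM) with 2 mM UDP-glucose, 0.2% rabbit liver glycogen, 2 mM glucose-6-phosphate; UDP coupled via PK/LDH (2 mM PEP, 0.6 mM NADH). Buffer 50 mM Tris pH 7.5, 2 mM MgCl2, 100 mM KCl, 2.5% DMSO. A340 slope over 10 min; IC50 from Hill fit of duplicates.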

Chain of hGYS1 enzyme (recombinant hGYS1/GN1 protein) (P13807 whole entry): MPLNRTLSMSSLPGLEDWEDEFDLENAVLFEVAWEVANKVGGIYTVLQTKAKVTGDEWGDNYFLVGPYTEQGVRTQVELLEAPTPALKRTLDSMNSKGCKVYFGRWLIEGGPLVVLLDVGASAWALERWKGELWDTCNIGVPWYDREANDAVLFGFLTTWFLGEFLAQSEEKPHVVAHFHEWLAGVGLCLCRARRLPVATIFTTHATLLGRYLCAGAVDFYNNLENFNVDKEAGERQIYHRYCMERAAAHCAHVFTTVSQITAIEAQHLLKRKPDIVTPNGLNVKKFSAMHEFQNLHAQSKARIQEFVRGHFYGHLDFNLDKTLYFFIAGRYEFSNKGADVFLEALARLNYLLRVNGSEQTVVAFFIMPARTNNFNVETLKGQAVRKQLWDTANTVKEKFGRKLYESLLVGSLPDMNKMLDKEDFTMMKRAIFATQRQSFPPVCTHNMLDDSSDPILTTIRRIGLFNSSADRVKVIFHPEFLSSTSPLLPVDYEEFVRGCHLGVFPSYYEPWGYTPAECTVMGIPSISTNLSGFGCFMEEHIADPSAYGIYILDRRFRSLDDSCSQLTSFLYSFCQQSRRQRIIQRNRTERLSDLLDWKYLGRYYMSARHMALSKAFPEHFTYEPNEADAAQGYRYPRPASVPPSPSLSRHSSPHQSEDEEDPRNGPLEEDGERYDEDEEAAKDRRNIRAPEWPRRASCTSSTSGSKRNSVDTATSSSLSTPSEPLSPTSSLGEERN
Chain of hGYS1 enzyme (recombinant hGYS1/GN1 protein) (P46976 whole entry partner): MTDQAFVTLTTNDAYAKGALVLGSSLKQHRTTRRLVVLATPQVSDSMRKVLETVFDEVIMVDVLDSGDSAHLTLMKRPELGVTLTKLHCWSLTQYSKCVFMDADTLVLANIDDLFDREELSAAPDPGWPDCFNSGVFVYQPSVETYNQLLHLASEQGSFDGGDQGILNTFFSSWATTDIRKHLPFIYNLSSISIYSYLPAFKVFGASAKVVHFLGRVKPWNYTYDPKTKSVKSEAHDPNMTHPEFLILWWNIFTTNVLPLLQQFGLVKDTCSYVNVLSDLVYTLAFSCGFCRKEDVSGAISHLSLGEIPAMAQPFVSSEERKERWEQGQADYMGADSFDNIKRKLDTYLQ
Chain of hGYS2 enzyme (recombinant hGYS2/GN1 protein) (P54840 whole entry): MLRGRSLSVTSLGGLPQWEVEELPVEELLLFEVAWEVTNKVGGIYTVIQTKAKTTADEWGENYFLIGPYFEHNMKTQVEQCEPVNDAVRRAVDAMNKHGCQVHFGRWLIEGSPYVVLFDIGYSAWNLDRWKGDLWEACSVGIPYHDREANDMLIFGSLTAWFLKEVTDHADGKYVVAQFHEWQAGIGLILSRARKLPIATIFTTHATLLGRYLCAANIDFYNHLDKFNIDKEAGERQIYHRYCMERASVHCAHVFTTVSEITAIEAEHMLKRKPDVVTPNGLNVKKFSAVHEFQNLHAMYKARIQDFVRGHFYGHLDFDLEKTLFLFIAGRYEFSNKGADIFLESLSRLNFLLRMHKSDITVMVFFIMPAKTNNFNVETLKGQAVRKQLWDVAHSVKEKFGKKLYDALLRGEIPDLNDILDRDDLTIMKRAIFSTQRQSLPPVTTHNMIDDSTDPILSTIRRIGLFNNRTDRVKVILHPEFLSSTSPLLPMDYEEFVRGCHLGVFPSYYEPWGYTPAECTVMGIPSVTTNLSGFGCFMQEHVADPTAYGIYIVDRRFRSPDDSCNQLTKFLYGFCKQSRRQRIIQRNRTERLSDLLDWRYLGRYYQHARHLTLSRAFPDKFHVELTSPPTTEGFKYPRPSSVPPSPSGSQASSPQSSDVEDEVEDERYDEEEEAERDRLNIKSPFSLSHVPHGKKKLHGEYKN
Chain of hGYS2 enzyme (recombinant hGYS2/GN1 protein) (P46976 whole entry partner): as the sequence (P46976 whole entry partner) above

For the compound `CCn1c(=O)c(C)cn(CC(=O)N2C[C@H](F)C[C@H]2C(=O)N[C@@H](c2ccccc2)c2ccc(C3CC(F)(F)C3)c(F)n2)c1=O` [Compound 501, (2S,4R)—N—((S)-(5-(3,3-difluorocyclobutyl)-6-fluoropyridin-2-yl)(phenyl)methyl)-1-(2-(3-ethyl-5-methyl-2,4-dioxo-3,4-dihydropyrimidin-1(2H)-yl)acetyl)-4-fluoropyrrolidine-2-carboxamide], the IC50 in experiment [1] was 3 nM; in experiment [2], 50 nM; in experiment [3], greater than 100000 nM.

In the case of `Cc1nn(CC(=O)N2C[C@H](F)C[C@H]2C(=O)N[C@@H](c2ccccc2)c2ccc(C3CC(F)(F)C3)c(F)n2)c(=O)o1` [Compound 502, (2S,4R)-N-[(S)-[5-(3,3-difluorocyclobutyl)-6-fluoropyridin-2-yl](phenyl)methyl]-4-fluoro-1-[2-(5-methyl-2-oxo-2,3-dihydro-1,3,4-oxadiazol-3-yl)acetyl]pyrrolidine-2-carboxamide], the IC50 in experiment [1] is 10 nM; in experiment [2] it was 170 nM; in experiment [3] it was greater than 100000 nM.

For `O=C(N[C@@H](c1ccccc1)c1ccc(C2CC(F)(F)C2)c(F)n1)[C@@H]1C[C@@H](F)CN1C(=O)CNC(=O)N1CCC1` [Compound 503, (2S,4R)-1-{2-[(azetidine-1-carbonyl)amino]acetyl}-N-[(S)-[5-(3,3-difluorocyclobutyl)-6-fluoropyridin-2-yl](phenyl)methyl]-4-fluoropyrrolidine-2-carboxamide], the IC50 in experiment [1] is 8 nM; in experiment [2] it was 240 nM; in experiment [3], greater than 100000 nM.

Take `O=C(N[C@@H](c1ccccc1)c1ccc(C2CC(F)(F)C2)c(F)n1)[C@@H]1C[C@@H](F)CN1C(=O)Cn1cnc2ccccc21` [Compound 504, (2S,4R)-1-[2-(1H-1,3-benzodiazol-1-yl)acetyl]-N-[(S)-[5-(3,3-difluorocyclobutyl)-6-fluoropyridin-2-yl](phenyl)methyl]-4-fluoropyrrolidine-2-carboxamide]: the IC50 in experiment [1] was 3 nM; in experiment [2], 60 nM; in experiment [3], greater than 100000 nM.

As to `O=C(N[C@@H](c1ccccc1)c1ccc(C2CC(F)(F)C2)c(F)n1)[C@@H]1C[C@@H](F)CN1C(=O)Cc1ncco1` [Compound 505, (2S,4R)-N-[(S)-[5-(3,3-difluorocyclobutyl)-6-fluoropyridin-2-yl](phenyl)methyl]-4-fluoro-1-[2-(1,3-oxazol-2-yl)acetyl]pyrrolidine-2-carboxamide], the IC50 in experiment [1] was 20 nM; in experiment [2], 350 nM; in experiment [3], greater than 100000 nM.

For the compound `Cc1cn(CC(=O)N2C[C@H](F)C[C@H]2C(=O)N[C@@H](c2ccccc2)c2ccc(C3CC(F)(F)C3)c(F)n2)c(=O)[nH]c1=O` [Compound 506, (2S,4R)-N-[(S)-[5-(3,3-difluorocyclobutyl)-6-fluoropyridin-2-yl](phenyl)methyl]-4-fluoro-1-[2-(5-methyl-2,4-dioxo-1,2,3,4-tetrahydropyrimidin-1-yl)acetyl] pyrrolidine-2-carboxamide], the IC50 in experiment [1] was 4 nM; in experiment [2] it was 370 nM; in experiment [3], greater than 100000 nM.

Turning to `CN(C)C(=O)NCC(=O)N1C[C@H](F)C[C@H]1C(=O)N[C@@H](c1ccccc1)c1ccc(C2CC(F)(F)C2)c(F)n1` [Compound 507, (2S,4R)-N-[(S)-[5-(3,3-difluorocyclobutyl)-6-fluoropyridin-2-yl](phenyl)methyl]-1-{2-[(dimethylcarbamoyl)amino]acetyl}-4-fluoropyrrolidine-2-carboxamide], the IC50 is 22 nM in experiment [1], 260 nM in experiment [2] and greater than 100000 nM in experiment [3].

On to `O=C(N[C@@H](c1ccccc1)c1ccc(C2CC(F)(F)C2)c(F)n1)[C@@H]1C[C@@H](F)CN1C(=O)Cc1cnn[nH]1` [Compound 508, (2S,4R)-N-[(S)-[5-(3,3-difluorocyclobutyl)-6-fluoropyridin-2-yl](phenyl)methyl]-4-fluoro-1-[2-(1H-1,2,3-triazol-5-yl)acetyl]pyrrolidine-2-carboxamide], for which the IC50 in experiment [1] was 21 nM; in experiment [2], 310 nM; in experiment [3], greater than 100000 nM.

For `Cc1cnc(CC(=O)N2C[C@H](F)C[C@H]2C(=O)N[C@@H](c2ccccc2)c2ccc(C3CC(F)(F)C3)c(F)n2)o1` [Compound 509, (2S,4R)-N-[(S)-[5-(3,3-difluorocyclobutyl)-6-fluoropyridin-2-yl](phenyl)methyl]-4-fluoro-1-[2-(5-methyl-1,3-oxazol-2-yl)acetyl]pyrrolidine-2-carboxamide], the values for the IC50 in experiment [1], in experiment [2] and in experiment [3] were 8 nM, 180 nM and greater than 100000 nM, respectively.

Take `O=C(N[C@@H](c1ccccc1)c1ccc(C2CC(F)(F)C2)c(F)n1)[C@@H]1C[C@@H](F)CN1C(=O)Cc1[nH]nnc1C(F)(F)F` [Compound 510, (2S,4R)-N-[(S)-[5-(3,3-difluorocyclobutyl)-6-fluoropyridin-2-yl](phenyl)methyl]-4-fluoro-1-{2-[4-(trifluoromethyl)-1H-1,2,3-triazol-5-yl]acetyl} pyrrolidine-2-carboxamide]: the IC50 is 9 nM in experiment [1], 230 nM in experiment [2] and greater than 100000 nM in experiment [3].

In the case of `Cc1coc(CC(=O)N2C[C@H](F)C[C@H]2C(=O)N[C@@H](c2ccccc2)c2ccc(C3CC(F)(F)C3)c(F)n2)n1` [Compound 511, (2S,4R)-N-[(S)-[5-(3,3-difluorocyclobutyl)-6-fluoropyridin-2-yl](phenyl)methyl]-4-fluoro-1-[2-(4-methyl-1,3-oxazol-2-yl)acetyl]pyrrolidine-2-carboxamide], the IC50 was 12 nM in experiment [1], 260 nM in experiment [2] and greater than 100000 nM in experiment [3].

For `O=C(N[C@@H](c1ccccc1)c1ccc(C2CC(F)(F)C2)c(F)n1)[C@@H]1C[C@@H](F)CN1C(=O)CNC(=O)N1CC(F)(F)C1` [Compound 512, (2S,4R)-1-{2-[(3,3-difluoroazetidine-1-carbonyl)amino]acetyl}-N-[(S)-[5-(3,3-difluorocyclobutyl)-6-fluoropyridin-2-yl](phenyl)methyl]-4-fluoropyrrolidine-2-carboxamide], the IC50 in experiment [1] is 15 nM; in experiment [2], 290 nM; in experiment [3] it was greater than 100000 nM.

On to `O=C(N[C@@H](c1ccccc1)c1ccc(C2CC(F)(F)C2)c(F)n1)[C@@H]1C[C@@H](F)CN1C(=O)Cn1nnnc1C(F)F` [Compound 513, (2S,4R)-N-[(S)-[5-(3,3-difluorocyclobutyl)-6-fluoropyridin-2-yl](phenyl)methyl]-1-{2-[5-(difluoromethyl)-1H-1,2,3,4-tetrazol-1-yl]acetyl}-4-fluoropyrrolidine-2-carboxamide], for which the IC50 was 14 nM in experiment [1], 220 nM in experiment [2] and greater than 100000 nM in experiment [3].

Consider `O=C(N[C@@H](c1ccccc1)c1ccc(C2CC(F)(F)C2)c(F)n1)[C@@H]1C[C@@H](F)CN1C(=O)Cn1ccc(=O)[nH]c1=O` [Compound 514, (2S,4R)-N-[(S)-[5-(3,3-difluorocyclobutyl)-6-fluoropyridin-2-yl](phenyl)methyl]-1-[2-(2,4-dioxo-1,2,3,4-tetrahydropyrimidin-1-yl)acetyl]-4-fluoropyrrolidine-2-carboxamide], for which the IC50 in experiment [1] is 7 nM; in experiment [2] it was 770 nM; in experiment [3], greater than 100000 nM.

Regarding `CCn1c(=O)ccn(CC(=O)N2C[C@H](F)C[C@H]2C(=O)N[C@@H](c2ccccc2)c2ccc(C3CC(F)(F)C3)c(F)n2)c1=O` [Compound 515, (2S,4R)-N-[(S)-[5-(3,3-difluorocyclobutyl)-6-fluoropyridin-2-yl](phenyl)methyl]-1-[2-(3-ethyl-2,4-dioxo-l,2,3,4-tetrahydropyrimidin-1-yl)acetyl]-4-fluoropyrrolidine-2-carboxamide], the values for the IC50 in experiment [1], in experiment [2] and in experiment [3] were 4 nM, 100 nM and greater than 100000 nM, respectively.

Take `O=C(N[C@@H](c1ccccc1)c1ccc(C2CC(F)(F)C2)c(F)n1)[C@@H]1C[C@@H](F)CN1C(=O)Cc1ccc(=O)[nH]c1` [Compound 516, (2S,4R)-N-[(S)-[5-(3,3-difluorocyclobutyl)-6-fluoropyridin-2-yl](phenyl)methyl]-4-fluoro-1-[2-(6-oxo-1,6-dihydropyridin-3-yl)acetyl]pyrrolidine-2-carboxamide]: the IC50 in experiment [1] was 8 nM; in experiment [2], 710 nM; in experiment [3] it was greater than 100000 nM.

For the compound `O=C(N[C@@H](c1ccccc1)c1ccc(C2CC(F)(F)C2)c(F)n1)[C@@H]1C[C@@H](F)CN1C(=O)Cc1ccc[nH]c1=O` [Compound 517, (2S,4R)-N-[(S)-[5-(3,3-difluorocyclobutyl)-6-fluoropyridin-2-yl](phenyl)methyl]-4-fluoro-1-[2-(2-oxo-1,2-dihydropyridin-3-yl)acetyl]pyrrolidine-2-carboxamide], the results for the IC50 in experiment [1], in experiment [2] and in experiment [3] were 8 nM, 540 nM and greater than 100000 nM, respectively.

For the compound `CCn1c(=O)c(C)cn(CC(=O)N2C[C@H](F)C[C@H]2C(=O)N[C@H](c2ccccc2)c2ccc(C3CC(F)(F)C3)c(F)n2)c1=O` [Compound 518, (2S,4R)-N-[(R)-[5-(3,3-difluorocyclobutyl)-6-fluoropyridin-2-yl](phenyl)methyl]-1-[2-(3-ethyl-5-methyl-2,4-dioxo-1,2,3,4-tetrahydropyrimidin-1-yl)acetyl]-4-fluoropyrrolidine-2-carboxamide], the IC50 was 1500 nM in experiment [1], 10700 nM in experiment [2] and greater than 100000 nM in experiment [3].
